Data as given in patent US6737383B1, “Herbicidal oxadiazolidines” (priority 1999, dated 2004).

Experiments:
[1] = test system: cocklebur; experiment: Test B pre/postemergence cocklebur; format: in vivo, Xanthium strumarium
Method in brief: (§1)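 Herbicidal effect was estimated by eye on a ten-point control scale after plants spent twelve to sixteen days in a greenhouse following soil or foliar treatment. Foliar sprays targeted plants at one to four leaves; all doses were formulated in a non-phytotoxic solvent with surfactant.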

[2] = test system: giant foxtail; experiment: Test B pre/postemergence giant foxtail; format: in vivo, Setaria faberii
Method in brief: as §1

[3] = test system: morningglory; experiment: Test B pre/postemergence morningglory; format: in vivo, Ipomoea hederacea
Method in brief: as §1

[4] = test system: bamyardgrass; experiment: Test B flood test barnyardgrass; format: in vivo, Echinochloa crus-galli
Method in brief: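 Flood test on plants grown to the 2-leaf stage; treated plants kept in greenhouse twelve to sixteen days, then visually rated against controls on a 0 (no effect) to 10 (complete control) scale.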

[5] = Postemergence, Rate 250 g/ha, scale 0 to 10, 0 no effect, 10 complete control
[6] = Postemergence, Rate 1000 g/ha, scale 0 to 10 (0 no effect, 10 complete control)
[7] = Preemergence, Rate 125 g/ha, scale 0 to 10 (0 no effect, 10 complete control)
[8] = Preemergence, Rate 250 g/ha, scale of 0 to 10 where 0 is no effect and 10 is complete control
[9] = Preemergence, Rate 500 g/ha, scale 0 (no effect) to 10 (complete control)
[10] = Rate 125 g/ha, Postemergence, scale 0 to 10, 0 no effect, 10 complete control
[11] = Rate 500 g/ha, Postemergence, 0 to 10 scale (0 no effect, 10 complete control)
[12] = Rate 1000 g/ha, Preemergence, scale 0 to 10 (0 no effect, 10 complete control)
[13] = Rate 125 g/ha, Postemergence section (flood test species), scale 0 to 10, 0 no effect, 10 complete control
[14] = Rate 500 g/ha, Postemergence section of Table B, 0 to 10 scale (0 no effect, 10 complete control)
[15] = flood test, listed under Postemergence, Rate 250 g/ha, scale 0 to 10, 0 no effect, 10 complete control
[16] = Postemergence, Rate 62 g/ha, scale 0 to 10, 0 is no effect, 10 is complete control
[17] = Preemergence, Rate 62 g/ha, scale 0 to 10, 0 is no effect, 10 is complete control
[18] = Preemergence, Rate 62 g/ha, scale 0 to 10 (0 no effect, 10 complete control)
[19] = Rate 500 g/ha, Postemergence, scale 0 to 10, 0 no effect, 10 complete control
[20] = Rate 500 g/ha, listed under Postemergence (flood test species), scale 0 to 10, 0 no effect, 10 complete control
[21] = Postemergence, Rate 125 g/ha, scale of 0 to 10 where 0 is no effect and 10 is complete control
[22] = Rate 62 g/ha, Postemergence, scale of 0 to 10 where 0 is no effect and 10 is complete control

CC(C)N(C(=O)n1oc(=O)n(-c2ccccc2Cl)c1=O)c1ccc(F)cc1 [Compound 8]
Cocklebur plant response rating [1, 5]: 0 | Cocklebur plant response rating [1, 6]: 2 | Plant response rating, Cocklebur [1, 7]: 0 | Plant response rating, Cocklebur [1, 8]: 0 | Cocklebur plant response rating [1, 9]: 0 | Cocklebur plant response rating [1, 10]: 0 | Cocklebur plant response rating [1, 11]: 1 | Plant response rating, Cocklebur [1, 12]: 0 | Giant foxtail plant response rating [2, 5]: 0 | Giant foxtail plant response rating [2, 6]: 4 | Plant response rating, Giant foxtail [2, 7]: 5 | Plant response rating, Giant foxtail [2, 8]: 9 | Giant foxtail plant response rating [2, 9]: 10 | Giant foxtail plant response rating [2, 10]: 0 | Giant foxtail plant response rating [2, 11]: 2 | Plant response rating, Giant foxtail [2, 12]: 10 | Morningglory plant response rating [3, 5]: 0 | Morningglory plant response rating [3, 6]: 6 | Plant response rating, Morningglory [3, 7]: 0 | Plant response rating, Morningglory [3, 8]: 0 | Morningglory plant response rating [3, 9]: 0 | Morningglory plant response rating [3, 10]: 0 | Morningglory plant response rating [3, 11]: 2 | Plant response rating, Morningglory [3, 12]: 0 | Barnyardgrass plant response rating [4, 6]: 0 | Barnyardgrass plant response rating [4, 13]: 0 | Barnyardgrass plant response rating [4, 14]: 0 | Barnyardgrass plant response rating [4, 15]: 0

CCN(CC)C(=O)n1oc(=O)n(-c2ccc(OC(F)(F)F)cc2)c1=O [Compound 12]
Cocklebur plant response rating [1, 5]: 0 | Cocklebur plant response rating [1, 6]: 0 | Plant response rating, Cocklebur [1, 7]: 0 | Plant response rating, Cocklebur [1, 8]: 0 | Cocklebur plant response rating [1, 9]: 0 | Cocklebur plant response rating [1, 10]: 0 | Cocklebur plant response rating [1, 11]: 0 | Plant response rating, Cocklebur [1, 12]: 0 | Giant foxtail plant response rating [2, 5]: 0 | Giant foxtail plant response rating [2, 6]: 0 | Plant response rating, Giant foxtail [2, 7]: 0 | Plant response rating, Giant foxtail [2, 8]: 0 | Giant foxtail plant response rating [2, 9]: 2 | Giant foxtail plant response rating [2, 10]: 0 | Giant foxtail plant response rating [2, 11]: 0 | Plant response rating, Giant foxtail [2, 12]: 8 | Morningglory plant response rating [3, 5]: 0 | Morningglory plant response rating [3, 6]: 0 | Plant response rating, Morningglory [3, 7]: 0 | Plant response rating, Morningglory [3, 8]: 0 | Morningglory plant response rating [3, 9]: 0 | Morningglory plant response rating [3, 10]: 0 | Morningglory plant response rating [3, 11]: 0 | Plant response rating, Morningglory [3, 12]: 0 | Barnyardgrass plant response rating [4, 6]: 0 | Barnyardgrass plant response rating [4, 13]: 0 | Barnyardgrass plant response rating [4, 14]: 0 | Barnyardgrass plant response rating [4, 15]: 0

Cc1ccccc1-n1c(=O)on(C(=O)N(c2ccc(F)cc2F)C(C)C)c1=O [Compound 25]
Cocklebur plant response rating [1, 16]: 0 | Cocklebur plant response rating [1, 5]: 2 | Plant response rating, Cocklebur [1, 17]: 0 | Plant response rating, Cocklebur [1, 7]: 0 | Plant response rating, Cocklebur [1, 8]: 0 | Cocklebur plant response rating [1, 9]: 0 | Cocklebur plant response rating [1, 10]: 2 | Cocklebur plant response rating [1, 11]: 5 | Giant foxtail plant response rating [2, 16]: 3 | Giant foxtail plant response rating [2, 5]: 8 | Plant response rating, Giant foxtail [2, 17]: 5 | Plant response rating, Giant foxtail [2, 7]: 7 | Plant response rating, Giant foxtail [2, 8]: 10 | Giant foxtail plant response rating [2, 9]: 10 | Giant foxtail plant response rating [2, 10]: 5 | Giant foxtail plant response rating [2, 11]: 8 | Morningglory plant response rating [3, 16]: 1 | Morningglory plant response rating [3, 5]: 2 | Plant response rating, Morningglory [3, 17]: 0 | Plant response rating, Morningglory [3, 7]: 0 | Plant response rating, Morningglory [3, 8]: 0 | Morningglory plant response rating [3, 9]: 0 | Morningglory plant response rating [3, 10]: 1 | Morningglory plant response rating [3, 11]: 2 | Barnyardgrass plant response rating [4, 16]: 0 | Barnyardgrass plant response rating [4, 13]: 0 | Barnyardgrass plant response rating [4, 14]: 8 | Barnyardgrass plant response rating [4, 15]: 0

Cc1ccccc1-n1c(=O)on(C(=O)N(c2cc(F)ccc2F)C(C)C)c1=O [Compound 68]
Cocklebur plant response rating [1, 16]: 0 | Cocklebur plant response rating [1, 5]: 2 | Cocklebur plant response rating [1, 18]: 0 | Plant response rating, Cocklebur [1, 7]: 0 | Plant response rating, Cocklebur [1, 8]: 0 | Cocklebur plant response rating [1, 9]: 0 | Cocklebur plant response rating [1, 10]: 0 | Cocklebur plant response rating [1, 19]: 2 | Giant foxtail plant response rating [2, 16]: 0 | Giant foxtail plant response rating [2, 5]: 0 | Giant foxtail plant response rating [2, 18]: 5 | Plant response rating, Giant foxtail [2, 7]: 9 | Plant response rating, Giant foxtail [2, 8]: 10 | Giant foxtail plant response rating [2, 9]: 10 | Giant foxtail plant response rating [2, 10]: 0 | Giant foxtail plant response rating [2, 19]: 0 | Morningglory plant response rating [3, 16]: 2 | Morningglory plant response rating [3, 5]: 2 | Morningglory plant response rating [3, 18]: 0 | Plant response rating, Morningglory [3, 7]: 0 | Plant response rating, Morningglory [3, 8]: 0 | Morningglory plant response rating [3, 9]: 0 | Morningglory plant response rating [3, 10]: 2 | Morningglory plant response rating [3, 19]: 3 | Barnyardgrass plant response rating [4, 16]: 0 | Barnyardgrass plant response rating [4, 13]: 0 | Barnyardgrass plant response rating [4, 20]: 0 | Barnyardgrass plant response rating [4, 15]: 0

CCN(C(=O)n1oc(=O)n(Cc2cccs2)c1=O)C1CCCCC1 [Compound 82]
Cocklebur plant response rating [1, 16]: 0 | Cocklebur plant response rating [1, 5]: 0 | Cocklebur plant response rating [1, 18]: 0 | Plant response rating, Cocklebur [1, 7]: 0 | Plant response rating, Cocklebur [1, 8]: 0 | Cocklebur plant response rating [1, 9]: 0 | Cocklebur plant response rating [1, 10]: 0 | Cocklebur plant response rating [1, 19]: 0 | Giant foxtail plant response rating [2, 16]: 0 | Giant foxtail plant response rating [2, 5]: 0 | Giant foxtail plant response rating [2, 18]: 0 | Plant response rating, Giant foxtail [2, 7]: 0 | Plant response rating, Giant foxtail [2, 8]: 0 | Giant foxtail plant response rating [2, 9]: 0 | Giant foxtail plant response rating [2, 10]: 0 | Giant foxtail plant response rating [2, 19]: 0 | Morningglory plant response rating [3, 16]: 4 | Morningglory plant response rating [3, 5]: 10 | Morningglory plant response rating [3, 18]: 0 | Plant response rating, Morningglory [3, 7]: 0 | Plant response rating, Morningglory [3, 8]: 0 | Morningglory plant response rating [3, 9]: 0 | Morningglory plant response rating [3, 10]: 7 | Morningglory plant response rating [3, 19]: 10 | Barnyardgrass plant response rating [4, 16]: 0 | Barnyardgrass plant response rating [4, 13]: 0 | Barnyardgrass plant response rating [4, 20]: 0 | Barnyardgrass plant response rating [4, 15]: 0

Cc1nn(C)c(Cl)c1-n1c(=O)on(C(=O)N(c2ccc(F)cc2)C(C)C)c1=O [Compound 95]
Cocklebur plant response rating [1, 16]: 0 | Cocklebur plant response rating [1, 21]: 0 | Cocklebur plant response rating [1, 5]: 1 | Cocklebur plant response rating [1, 18]: 0 | Plant response rating, Cocklebur [1, 7]: 0 | Plant response rating, Cocklebur [1, 8]: 0 | Cocklebur plant response rating [1, 9]: 0 | Cocklebur plant response rating [1, 19]: 2 | Giant foxtail plant response rating [2, 16]: 0 | Giant foxtail plant response rating [2, 21]: 0 | Giant foxtail plant response rating [2, 5]: 1 | Giant foxtail plant response rating [2, 18]: 2 | Plant response rating, Giant foxtail [2, 7]: 4 | Plant response rating, Giant foxtail [2, 8]: 7 | Giant foxtail plant response rating [2, 9]: 8 | Giant foxtail plant response rating [2, 19]: 6 | Morningglory plant response rating [3, 16]: 1 | Morningglory plant response rating [3, 21]: 1 | Morningglory plant response rating [3, 5]: 2 | Morningglory plant response rating [3, 18]: 0 | Plant response rating, Morningglory [3, 7]: 0 | Plant response rating, Morningglory [3, 8]: 0 | Morningglory plant response rating [3, 9]: 0 | Morningglory plant response rating [3, 19]: 8 | Barnyardgrass plant response rating [4, 16]: 0 | Barnyardgrass plant response rating [4, 13]: 0 | Barnyardgrass plant response rating [4, 20]: 4 | Barnyardgrass plant response rating [4, 15]: 0

CCc1noc(C)c1-n1c(=O)on(C(=O)N(c2ccc(F)cc2)C(C)C)c1=O [Compound 101]
Cocklebur plant response rating [1, 21]: 0 | Cocklebur plant response rating [1, 5]: 0 | Cocklebur plant response rating [1, 18]: 0 | Plant response rating, Cocklebur [1, 7]: 0 | Plant response rating, Cocklebur [1, 8]: 0 | Cocklebur plant response rating [1, 22]: 0 | Cocklebur plant response rating [1, 19]: 0 | Giant foxtail plant response rating [2, 21]: 0 | Giant foxtail plant response rating [2, 5]: 0 | Giant foxtail plant response rating [2, 18]: 0 | Plant response rating, Giant foxtail [2, 7]: 0 | Plant response rating, Giant foxtail [2, 8]: 0 | Giant foxtail plant response rating [2, 9]: 0 | Giant foxtail plant response rating [2, 22]: 0 | Giant foxtail plant response rating [2, 19]: 0 | Morningglory plant response rating [3, 21]: 0 | Morningglory plant response rating [3, 5]: 1 | Morningglory plant response rating [3, 18]: 0 | Plant response rating, Morningglory [3, 7]: 0 | Plant response rating, Morningglory [3, 8]: 0 | Morningglory plant response rating [3, 9]: 0 | Morningglory plant response rating [3, 22]: 0 | Morningglory plant response rating [3, 19]: 1 | Barnyardgrass plant response rating [4, 16]: 0 | Barnyardgrass plant response rating [4, 13]: 0 | Barnyardgrass plant response rating [4, 20]: 0 | Barnyardgrass plant response rating [4, 15]: 0
